In article PMC3013507 (Anticancer research, 2010):
Where two headings read alike, the source gives them in different places.

Key:
NF-κB p65 = NF-κB p65 (Homo sapiens, UniProt Q04206); experiment: ELISA NF-κB p65 inhibition assay; format: cell-based; settings: for ELISA NF-κB IC50: NF-κB p65, nuclear extract of HeLa cells treated with compound and TNF-α; for NF-κB inhibitory activity (in words): NF-κB p65 ELISA
HL-60 cells [1] = experiment: Cytotoxicity; settings: HL-60 leukemia cells; for HL-60 ED50: 3–4 days, SRB
HT-29 cells [2] = experiment: Cytotoxicity; settings: HT-29 colon cancer cells; for HT-29 ED50: 3–4 days, SRB
HeLa cells [3] = experiment: Cytotoxicity; settings: for HeLa ED50: HeLa cervical cancer cells, 3–4 days, SRB
HT-29 cells [4] = experiment: Reactive oxygen species; format: cell-based; settings: for Potentiating effect on intracellular ROS levels in the presence of H2O2: H2O2 50 μM
[5] = test system: mitochondria transmembrane potential; experiment: Mitochondria transmembrane potential; format: cell-based; settings: 2 h treatment, JC-1
NF-κB = NF-κB evaluation in whole cells; format: cell-based; settings: HeLa cells, IL-1α stimulation; compound 8 at 5 μg/ml
NFAT-1 = NFAT-1 assay; format: cell-based; settings: 30 min incubation
P-388 cell line = settings: cited from earlier work
HT-29 cells [6] = test system: HT-29 cells
HL-60 cells [7] = test system: HL-60 cells
HeLa cells [8] = test system: HeLa cells

Chain of NF-κB p65 (Q04206 whole entry): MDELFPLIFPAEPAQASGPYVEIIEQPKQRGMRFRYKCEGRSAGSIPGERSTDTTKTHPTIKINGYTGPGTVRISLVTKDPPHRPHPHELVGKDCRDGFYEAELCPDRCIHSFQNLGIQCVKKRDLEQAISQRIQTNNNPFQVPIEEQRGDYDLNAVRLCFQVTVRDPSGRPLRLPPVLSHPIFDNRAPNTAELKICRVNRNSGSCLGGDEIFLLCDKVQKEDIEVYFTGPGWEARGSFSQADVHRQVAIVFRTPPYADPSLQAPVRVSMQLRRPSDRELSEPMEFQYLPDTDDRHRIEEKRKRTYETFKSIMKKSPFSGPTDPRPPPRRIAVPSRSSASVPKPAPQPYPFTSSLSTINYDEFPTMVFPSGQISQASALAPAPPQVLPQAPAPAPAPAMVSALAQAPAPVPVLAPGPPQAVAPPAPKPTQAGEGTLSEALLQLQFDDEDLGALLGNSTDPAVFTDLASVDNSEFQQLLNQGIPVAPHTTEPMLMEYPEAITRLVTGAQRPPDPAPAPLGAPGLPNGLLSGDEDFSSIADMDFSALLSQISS

Molecule	ELISA NF-κB IC50 (NF-κB p65) [µg/mL]	HL-60 ED50 (HL-60 cells [1]) [µg/mL]	HT-29 ED50 (HT-29 cells [2]) [µg/mL]	HeLa ED50 (HeLa cells [3]) [µg/mL]	Cytotoxicity against HL-60 (in words) (HL-60 cells [7])	further results
C/C=C(\C)C(=O)O[C@@H]1C[C@@]2(C)[C@H]([C@@H]3C[C@@H]([C@@H]4OC4(C)C)O[C@@H]3OC(C)=O)CC[C@]2(C)[C@@H]2CC=C3C(C)(C)C(=O)C[C@H](O)[C@]3(C)[C@H]21 [Compound 2, bruceajavaninone A]	5.3	>20	>20	>20	–	–
bruceajavanone C [Compound 3]	>20	>20	>20	>20	–	–
COc1cc(-c2cc(=O)c3c(O)cc(O)cc3o2)ccc1O [Compound 8, chrysoeriol]	–	0.6	>20	>20	–	Potentiating effect on intracellular ROS levels in the presence of H2O2 (HT-29 cells [4]): exerted a potentiating effect; Elevation of intracellular ROS in the absence of H2O2 (HT-29 cells [4]; compound alone): most significant elevation of intracellular ROS; Effect on mitochondrial transmembrane potential [5]: able to compromise the integrity of the mitochondrial membrane to a larger extent than the other test compounds; Inhibition of NF-κB translocation into the nucleus (NF-κB): showed inhibition of translocation of NF-κB into the nucleus; NFAT translocation from the cytoplasm to the nucleus (NFAT-1): Induced activation of NFAT was confirmed by its translocation to the nucleus; Activity using the P-388 cell line (P-388 cell line): moderately active; Cytotoxicity against HL-60 (in words) (HL-60 cells [1]): selective cytotoxicity against the HL-60 cell line
COC(=O)[C@@]12OC[C@]34[C@H]([C@@H](O)[C@@H]1O)[C@@]1(C)CC(=O)C(O)=C(C)[C@@H]1C[C@H]3OC(=O)[C@H](OC(=O)/C=C(\C)C(C)C)[C@@H]24 [Compound 5, bruceantin]	–	0.0082	0.012	0.016	–	IC50 (NF-κB p65): 35.7 µM; NF-κB inhibitory activity (in words) (NF-κB p65): moderate NF-κB inhibitory activity; Cytotoxicity against HL-60 (in words) (HL-60 cells [1]): highly cytotoxic; Cytotoxicity against HT-29 (in words) (HT-29 cells [2]): highly cytotoxic; Cytotoxicity against HeLa (in words) (HeLa cells [3]; HeLa cells): highly cytotoxic
COC(=O)[C@@]12OC[C@]34[C@H]([C@@H](O)[C@@H]1O)[C@@]1(C)CC(=O)C(O)=C(C)[C@@H]1C[C@H]3OC(=O)[C@H](OC(=O)CC(C)C)[C@@H]24 [Compound 6, bruceine A]	–	0.069	1.6	0.6	highly cytotoxic	IC50 (NF-κB p65): 4.21 µM; NF-κB inhibitory activity (in words) (NF-κB p65): moderate NF-κB inhibitory activity; Cytotoxicity against HT-29 (in words) (HT-29 cells [6]): highly cytotoxic; Cytotoxicity against HeLa (in words) (HeLa cells [8]): highly cytotoxic
Cc1c2ccncc2c(C)c2c1[nH]c1ccccc12 [Ellipticine, ellipticine, reference compound]	–	1.3	3.5	3.6	–	–
COc1ccc([C@@]23Oc4cc(OC)cc(OC)c4[C@]2(O)[C@H](O)[C@H](C(=O)N(C)C)[C@H]3c2ccccc2)cc1 [Rocaglamide, reference compound]	–	–	–	–	–	Inhibition of NF-κB translocation into the nucleus (NF-κB): inhibited the translocation

Second part, led by results:

ELISA NF-κB IC50 (NF-κB p65) [µg/mL]	Molecule	HL-60 ED50 (HL-60 cells [1]) [µg/mL]	HT-29 ED50 (HT-29 cells [2]) [µg/mL]	HeLa ED50 (HeLa cells [3]) [µg/mL]	Cytotoxicity against HL-60 (in words) (HL-60 cells [7])	further results
>20	bruceajavanone A 7-acetate [Compound 1]	>20	>20	>20	–	–
11.5	COc1cc([C@H]2Oc3cc(-c4cc(=O)c5c(O)cc(O)cc5o4)ccc3O[C@@H]2CO)ccc1O [Compound 7, (−)-hydnocarpin]	2.6	9.7	>20	moderate cytotoxicity	Cytotoxicity against HT-29 (in words) (HT-29 cells [6]): moderate cytotoxicity
1.0	C/C=C(\C)C(=O)O[C@@H]1C[C@]2(C)C(=CC[C@H]2[C@@H]2C[C@@H]([C@@H]3OC3(C)C)O[C@@H]2OC(C)=O)[C@@]2(C)[C@H]1[C@@]1(C)C=CC(=O)C(C)(C)[C@@H]1C[C@H]2OC(C)=O [Compound 4, bruceajavanone B]	1.1	>20	>20	selective cytotoxicity against the HL-60 cell line	Potentiating effect on intracellular ROS levels in the presence of H2O2 (HT-29 cells [4]): exerted a potentiating effect
